Patent US9085605B2, “Chemical synthesis and anti-tumor and anti-metastatic effects of dual functional conjugate” (Shenzhen Salubris Pharmaceuticals Co., Ltd., priority 2010, dated 2015)
Like-named read-outs stand apart in the source and are kept apart here.

What was measured:
Human lung cancer H460 = settings: for TGI: 24 mg/kg
Description: Through cell culture in vitro, the tumor was inoculated on nude mice, the tumor grew and passaged for the experiment use. • Animals: BALB/c nude mice, ♀, 4˜5 weeks old, were obtained from the Experimental Lab, Chinese Academy of Medical Science, Certificate NO. […] Experiment Method:
The tumor-bearing mice with good tumor growth and good general physical condition were selected and sacrificed. Tumor was isolated in a sterile condition and cut into fragments (diameter for about 2-3 mm) by surgical knife. The fragments were then hypodermically inoculated in posterior axillary of nude mice by means of a trocar.
After the tumors grew naturally for eight days, the average volume of tumors reaches 130 mm^3. The length and width of tumor was measured using vernier calipers, and divided into groups by the tumor volume.
The mice were divided into five groups for observation, each groups had eight mice. […] Respective drug was administrated for each group from the grouping day.
The experiment was terminated 24 hours after the last administration.
During the experimentation, the tumors sizes (length and width) and body weights of mice were measured once every three days. The tumor volume (TV) and relative tumor volume (RTV) were calculated according to the method for references, and the tumor volume growth tendency chart was plotted.
At the end of the experiment, the mice were sacrificed. Tumors were removed and weighed, and the inhibition rate of the tumor growth by drugs was calculated. Statistical significance of the tumor weight, tumor volume and RTV level were evaluated by t-test.
[formula] • (C, average tumor weight of control group; T, average tumor weight of administrated group) • Tumor Volume (TV)=length×width^2/2. • Relative Tumor Volume (RTV) formula: Vt/Vo • (Vo is the volume of TV at the beginning of the grouping, and Vt is the volume of TV at measure time) • Anti-tumor activities were evaluated by Tumor Relative proliferation Rate T/C (%)
[formula] • Therapeutic effect evaluation standard: T/C (%)>40, was judged as invalid; • T/C (%)≦40, and through statistical evaluation P<0.05, was judged as valid.

lewis lung cancer [1] = assay: Anti-artificial metastasis on Lewis lung cancer in mice (intravenous inoculation); format: in vivo, C57Bl/6 mice; settings: TAXOL 3 mg/kg i.p.
Experimental: The suspension (0.2 mL/mice, 3×10^5 tumor cell) was inoculated intravenously into the tails of fifty C57Bl/6 mice. […] The tumors, spleen and lung were removed and weighed.

[2] = tested on: Mice breast cancer cell line (4T1, ATCC CRL2539); settings: TAXOL 3 mg/kg i.p. once daily
Experimental: Mice breast cancer cell line (4T1, ATCC CRL2539) was a generous gift from Prof. Wei Liang of the Institute of biophysics, Chinese Academy of Sciences. The cell was cultured in the 1640 medium (Gibco) containing 10% fetal bovine serum (FBS), 1% glutamine and 1% penicillin.
4T1 cells in logarithmic phase were collected and the concentration was adjusted to 2×10^6/mL. 4T1 tumors were introduced in female BALB/c mice by injecting subcutaneously into the fourth fat pad area of the right abdominal mammary gland with the dose of 2×10^5/0.1 mL. […] From the 9th day after implantation, tumor growth was measured every 2 days with vernier calipers for determining the long diameter and short diameter of tumor. Tumor volume was calculated by the formula (½)×long diameter×short diameter^2. Drug was withdrawn on the twenty-eight days after the implantation, all mice were then sacrificed and the body weight were measured. The tumors, spleen and lung were removed and weighed. The lungs were fixed in Bouin's fixative for 24 h. The numbers of lung metastasis nodule were counted, the statistics was evaluated using Mann-Whitney U test.

[3] = tested on: human breast cancer line MDA-MB-231; assay: Tumor growth inhibition in nude mice xenograft model, MDA-MB-231; settings: Paclitaxel 24 mg/kg × 4, intermittent i.p.
Experimental: • 1. […] Drug administration dose were set as: 10 mg/kg, 15 mg/kg, and 20 mk/kg, drug administration volume was 0.2 mL/20 g. • 2. […] MDA [Peptide (P) 0.54 mg/mL (0.001M), Example 10], a colorless and clear liquid, was prepared by the commission, can be directly used after the repackaging in a sterile condition, stored at 4° C. […] Certificate NO. […] SYSK (BeiJing) 2004-0001. Experiment Methods:
The mice were divided into groups and administrated drug after 11 days.
The mice were divided into eight groups, each group had 6-8 mice. The groups contained Negative control. […] After grouping, all mice were administrated with drug by intraperitoneal injection once a day depends on their body weight.
Other groups were administered with drugs for 24 times successively. The experiment was completed 24 h after the last administration.
The mice were sacrificed, and tumors were isolated and their weight was measured, and the inhibition rate of tumor growth by drugs were calculated. […] Calculation methods and formula were omitted.

lewis lung cancer [4] = settings: TAXOL 6 mg/kg i.p. once daily
Experimental: C57Bl/6 mice with lewis lung cancer were sacrificed and the tumor was removed. The tumor cell suspension (5×10^6 cell/mL) was prepared in a sterile condition. The suspension (0.2 mL/mice, 1×10^6 tumor cell) was inoculated subcutaneously into the axillary of 24 C57Bl/6 mice. […] From the 7th day after the implantation, the long diameter and short diameter of tumor was measured every 2 days. Tumor volume was calculated by the formula (½)×long diameter×short diameter^2. Drug was withdrawn on the eighteenth day after the implantation. All mice were then sacrificed and the body weight was measured. The tumors, spleen and lung were removed and weighed. The lungs were fixed in Bouin's fixative for 24 h. The numbers of lung metastasis nodule were counted, and the statistics was evaluated by Mann-Whitney U test.

[5] = Paclitaxel injection 24 mg/kg × 4, once every three days

Structure (SMILES): CC(=O)O[C@H]1C(=O)[C@@]2(C)[C@H]([C@H](OC(=O)c3ccccc3)[C@]3(O)C[C@H](OC(=O)[C@H](O)[C@@H](NC(=O)c4ccccc4)c4ccccc4)C(C)=C1C3(C)C)[C@]1(OC(C)=O)CO[C@@H]1C[C@@H]2O [Paclitaxel, reference compound]
- Body weight Beginning (Human lung cancer H460; [5]): 18.9 ± 1.28 g
- Body weight End (Human lung cancer H460; [5]): 18.6 ± 1.41 g
- RTV (Human lung cancer H460; [5]): 11.9 ± 3.16
- T/C (Human lung cancer H460; [5]): 35.6%
- Tumor volume Beginning (Human lung cancer H460; [5]): 130 ± 36.7 mm^3
- Tumor volume End (Human lung cancer H460; [5]): 1583 ± 507.2 mm^3
- Tumor weight (Human lung cancer H460; [5]): 1.16 ± 0.410 g
- TGI (Human lung cancer H460; Paclitaxel injection 24 mg/kg × 4, once every three days, listed as Paclitaxel injection): 61.0%
- TGI (Human lung cancer H460; Paclitaxel injection 24 mg/kg × 4, once every three days, listed as paclitaxel): 61%
- Body weight lost compared with the average weight at the beginning of grouping (Human lung cancer H460; paclitaxel 24 mg/kg intermittently): 2
- Tumor growth inhibition rate compared with negative control (Human lung cancer H460; paclitaxel 24 mg/kg, after the fourth administration): 65%
- Lung weight (lewis lung cancer [1]): 497 ± 491 mg
- Lung metastasis nodule counts (lewis lung cancer [1]; listed as TAXOL): 38.5 ± 28
- Lung metastasis nodule counts (lewis lung cancer [1]; listed as Taxol): no significant improvement
- Lung weight [2]: 190 ± 49 mg
- Lung metastasis nodule counts ([2]; listed as TAXOL): 41.2 ± 9
- Lung metastasis nodule counts ([2]; listed as Taxol): no significant improvement
- RTV [3]: 3.18 ± 2.735
- T/C [3]: 17.64%
- TGI [3]: 84.9%
- Tumor volume Beginning [3]: 133 ± 39.8 mm^3
- Tumor volume End [3]: 422 ± 404.6 mm^3
- Tumor weight [3]: 0.43 ± 0.416 g
- Lung metastasis nodule counts (lewis lung cancer [4]; listed as TAXOL): 24.9 ± 9
- Lung metastasis nodule counts (lewis lung cancer [4]; listed as Taxol): no significant improvement
